Test results published in patent US20100249138A1, “MPZP: A SMALL MOLECULE CORTICOTROPIN-RELEASING FACTOR TYPE 1 RECEPTOR (CRF1) ANTOGONIST” (priority 2007, published 2010).
Entries after “also recorded” stand apart in the source; their conditions may differ.

Legend:
[1] = system: intracerebroventricular CRF-induced anxiogenic-like behavior; conditions: 20 mg/kg i.p.; cited from earlier work
[2] = system: cocaine self-administration; test: Cocaine self-administration in short access (ShA) and long access (LgA) rats; type: in vivo, rat
[3] = cLogP, Advanced Chemistry Development Software Solaris V4.67; conditions: from cLogP
[4] = system: ethanol self-administration; conditions: cited from earlier work
[5] = cited from earlier work
plasma ACTH = conditions: 20 mg/kg i.p.; cited from earlier work
[6] = system: cocaine self-administration; conditions: 30 minute pretreatment; limited (2 hour) daily drug access; cited from earlier work
[7] = in vivo; cited from earlier work
[8] = system: defensive withdrawal behavior; conditions: 20 mg/kg i.p.; cited from earlier work

SMILES: CCCCN(CC)c1nc(C)nc2c1c(C)c(C)n2-c1c(C)cc(C)cc1C.Cl [antalarmin, N-Butyl-N-ethyl-2,5,6-trimethyl-7-(2,4,6-trimethyl-phenyl)-7H-pyrrolol[2,3-d]pyrimidin-4-amine hydrochloride]
- intracerebroventricular CRF-induced anxiogenic-like behavior in the elevated plus maze [1]: inhibit
- slope of linear trend dose function on cocaine intake ([2]; LgA rats): −0.32
- decrease of cocaine intake compared to vehicle pretreatment ([2]; LgA rats, 25 mg/kg i.p., 80 minutes before 1 hour session): 13.3%
- cocaine intake compared with vehicle ([2]; LgA rats, 25 mg/kg i.p., hydrochloride, 25 mg/kg): significant decrease; also recorded: significantly decreased
- slope of linear trend dose function on cocaine intake ([2]; ShA rats): 0.01394
- cocaine intake compared to vehicle pretreatment ([2]; ShA rats, antalarmin 6.25-25 mg/kg i.p., hydrochloride): no dose significantly altered cocaine intake; also recorded: without significantly altering
- more hydrophobic than MPZP (fold) [3]: ~30,000 fold
- more hydrophobic than MPZP (orders) [3]: approximately 4.5 orders
- escalated ethanol intake ([4]; ethanol-dependent rats, acute withdrawal, 20 mg/kg i.p.): dose-dependently reduced
- ethanol self-administration ([4]; nondependent rats): did not influence
- aqueous solubility [5]: poor
- CRF-induced increases in plasma ACTH levels (plasma ACTH): blocked
- dose-response function of cocaine self-administration [6]: did not alter
- bioavailability [7]: low
- spontaneous defensive withdrawal behavior [8]: inhibit
